Laboratory results as given in patent publication US20140163061A1, “Methods For Reducing Blood Pressure” (FibroGen, Inc., priority 2008, published 2014).

Test system: human subjects with chronic kidney disease
Experiment: Blood pressure in human CKD subjects over a 24 hour period after oral dosing, Example 5
Type: in vivo
Procedure: Hypertension is a common condition in patients with chronic kidney disease. (Agarwal et al. (2005) Hypertension 46:514-520.) The effect of a compound of the present invention on blood pressure in anemic and non-anemic human subjects with advanced stage chronic kidney disease was examined. All study subjects had chronic kidney disease (CKD), defined as having a glomerular filtration rate (GFR)<59 ml/min. Some of these CKD subjects also had anemia, defined as having hemoglobin (Hb) levels<11 g/dL. Subjects were orally administered compound A or a placebo two or three times per week for four weeks. Blood pressure readings (i.e. systolic, diastolic, and mean arterial pressure) were taken at various times with a sphygmomanometer according to standard assessments. In one series of experiments, the effect of methods and medicaments of the present invention on blood pressure in anemic and non-anemic subjects with advanced stage chronic kidney disease was examined over a 24 hour period. Subjects were orally administered compound A or a placebo and blood pressure readings were taken at 1, 2, 3, 4, 6, 12, and 24 hours following treatment. […] Table 3, Table 4, and Table 5 below show hourly changes in mean arterial pressure (MAP), systolic blood pressure (SBP), and diastolic blood pressure (DBP) following oral administration of […] to human CKD subjects.

Cc1nc(C(=O)NCC(=O)O)c(O)c2ccc(Oc3ccccc3)cc12 [A, [(4-hydroxy-1-methyl-7-phenoxy-isoquinoline-3-carbonyl)-amino]-acetic acid]
Mean change from Baseline Diastolic BP (mmHg) (All Subjects, 3 hour): −5.45 mmHg | Mean change from Baseline MAP (mmHg) (All Subjects, 3 hour): −4.35 mmHg | Mean change from Baseline Systolic BP (mmHg) (All Subjects, 3 hour): −2.09 mmHg | Mean change from Baseline Diastolic BP (mmHg) (All Subjects, 4 hour): −6.36 mmHg | Mean change from Baseline MAP (mmHg) (All Subjects, 4 hour): −6.60 mmHg | Mean change from Baseline Systolic BP (mmHg) (All Subjects, 4 hour): −7.00 mmHg | Mean change from Baseline Diastolic BP (mmHg) (All Subjects, 6 hour): −7.00 mmHg | Mean change from Baseline MAP (mmHg) (All Subjects, 6 hour): −9.18 mmHg | Mean change from Baseline Systolic BP (mmHg) (All Subjects, 6 hour): −13.45 mmHg | Mean change from Baseline Diastolic BP (mmHg) (All Subjects, 12 hour): −2.55 mmHg | Mean change from Baseline MAP (mmHg) (All Subjects, 12 hour): −3.29 mmHg | Mean change from Baseline Systolic BP (mmHg) (All Subjects, 12 hour): −4.73 mmHg | Mean change from Baseline Diastolic BP (mmHg) (All Subjects, 24 hour): −1.55 mmHg | Mean change from Baseline MAP (mmHg) (All Subjects, 24 hour): −2.55 mmHg | Mean change from Baseline Systolic BP (mmHg) (All Subjects, 24 hour): −4.45 mmHg | Mean change from Baseline Diastolic BP (mmHg) (Anemic, 3 hour): −13.67 mmHg | Mean change from Baseline MAP (mmHg) (Anemic, 3 hour): −11.10 mmHg | Mean change from Baseline Systolic BP (mmHg) (Anemic, 3 hour): −6.33 mmHg | Mean change from Baseline Diastolic BP (mmHg) (Anemic, 4 hour): −12.67 mmHg | Mean change from Baseline MAP (mmHg) (Anemic, 4 hour): −14.67 mmHg | Mean change from Baseline Systolic BP (mmHg) (Anemic, 4 hour): −19.00 mmHg | Mean change from Baseline Diastolic BP (mmHg) (Anemic, 6 hour): −10.00 mmHg | Mean change from Baseline MAP (mmHg) (Anemic, 6 hour): −12.33 mmHg | Mean change from Baseline Systolic BP (mmHg) (Anemic, 6 hour): −17.33 mmHg | Mean change from Baseline Diastolic BP (mmHg) (Anemic, 12 hour): −5.00 mmHg | Mean change from Baseline MAP (mmHg) (Anemic, 12 hour): −2.00 mmHg | Mean change from Baseline Systolic BP (mmHg) (Anemic, 12 hour): 3.67 mmHg | Mean change from Baseline Diastolic BP (mmHg) (Anemic, 24 hour): −3.33 mmHg | Mean change from Baseline MAP (mmHg) (Anemic, 24 hour): −3.77 mmHg | Mean change from Baseline Systolic BP (mmHg) (Anemic, 24 hour): −5.00 mmHg | Mean change from Baseline Diastolic BP (mmHg) (Non-Anemic, 3 hour): −2.38 mmHg | Mean change from Baseline MAP (mmHg) (Non-Anemic, 3 hour): −3.81 mmHg | Mean change from Baseline Systolic BP (mmHg) (Non-Anemic, 3 hour): −0.50 mmHg | Mean change from Baseline Diastolic BP (mmHg) (Non-Anemic, 4 hour): −4.00 mmHg | Mean change from Baseline MAP (mmHg) (Non-Anemic, 4 hour): −3.58 mmHg | Mean change from Baseline Systolic BP (mmHg) (Non-Anemic, 4 hour): −2.50 mmHg | Mean change from Baseline Diastolic BP (mmHg) (Non-Anemic, 6 hour): −5.88 mmHg | Mean change from Baseline MAP (mmHg) (Non-Anemic, 6 hour): −8.00 mmHg | Mean change from Baseline Systolic BP (mmHg) (Non-Anemic, 6 hour): −12.00 mmHg | Mean change from Baseline Diastolic BP (mmHg) (Non-Anemic, 12 hour): −1.63 mmHg | Mean change from Baseline MAP (mmHg) (Non-Anemic, 12 hour): −3.78 mmHg | Mean change from Baseline Systolic BP (mmHg) (Non-Anemic, 12 hour): −7.88 mmHg | Mean change from Baseline Diastolic BP (mmHg) (Non-Anemic, 24 hour): −0.88 mmHg | Mean change from Baseline MAP (mmHg) (Non-Anemic, 24 hour): −8.00 mmHg | Mean change from Baseline Systolic BP (mmHg) (Non-Anemic, 24 hour): −4.25 mmHg | blood pressure at 1 and 2 hours post dosing (all CKD subjects, oral, same with placebo, data not shown): small increases in blood pressure
